Measurements from US20090248141A1, “Shape Memory Polymer Medical Devices” (THE REGENTS OF THE UNIVERSITY OF COLORADO, priority 2006, published 2009).

Assay: Cytotoxicity tests of photoinitiator in polymer system
Assay type: cell-based
Settings: photoinitiator at about 0.01-1 wt % of the polymer system
Experimental: A UV-Lamp (Model B100AP; Black-Ray) was used to photopolymerize the solutions for 10 minutes at an intensity of 10 mW/cm^2. The mould is slowly but constantly rotated during photopolymerization. After processing of all materials, polymers were heat treated at 90° C. for 1 hour to ensure the complete conversion of monomers. The photoinitiator 2,2-dimethoxy-2-phenylacetephenone was used although a variety of other initiators can also be used. […] Glass transition temperature (Tg) and rubbery modulus can be controlled by, for example, changing the weight percent (wt %) of the crosslinker, for example, PEGDMA (Mn 550) as shown in FIG. 9.

COC(OC)(C(=O)c1ccccc1)c1ccccc1 [2,2-dimethoxy-2-phenylacetephenone]
biocompatibility of the polymer (cytotoxicity tests): should not affect the biocompatibility of the polymer
